The source of these data is patent US10807982B2, “Bromodomain inhibitors” (CELGENE QUANTICEL RESEARCH, INC., priority 2015, dated 2020).

Structures can show the parent of a compound that is named as a salt.

In experiment [1] the test system is NCI-H460, human non-small cell lung cancer cells. The experiment can be described thus: Cell-MTS cellular proliferation assay, NCI-H460. Format: cell-based. The note with it: 168 hr incubation. On the procedure:
(§1) A colorimetric cellular proliferation assay (Cell-MTS assay) was performed to assess the ability of the heterocyclic derivative […] inhibitors disclosed herein to effect the proliferation of established cancer cell lines.
(§2) The Cell-MTS assay is a 7-day plate-based colorimetric assay which quantifies the amount of newly generated NADH in the presence or absence of test compound. The NADH level is used for the quantification of cancer cell proliferation.
(§3) Established cancer cell lines with a variety of driving mutations were obtained from American Type Culture Collection (ATCC) and routinely passaged according to ATCC protocols. For routine assay, these cells were seeded at densities which enabled ˜90% confluence after 7 days of culture. Raji, human Burkitts lymphoma cells, (cMYC) were seeded at 15,000 cells per 96-well. HL-60, human proleukemia cells, (NRAS, p16, p53, c-Myc amplified) were seeded at 5,000 cells per 96-well. NCI-H460, human non-small cell lung cancer cells. (KRAS, PIK3CA, STLK11, p16) were seeded at 3,000 cells per 96-well. 24 hr after plating, cells received an 11 point dilution of test compound with final concentration ranges from 100 µM to 2.0 nM. Cells were incubated in the presence of compound for 168 hr at 37° C., and 5% CO2. At the end of this incubation period, 80 µL of media is removed and 20 µL of CellTiter 96® AQueous Non-Radioactive Cell Proliferation Assay solution (Promega) was added. The cells were incubated until the OD490 was >0.6. IC50 values were calculated using the IDBS XLfit software package and include background subtracted OD490 values and normalization to DMSO controls. Cellular proliferation IC50 values were uploaded and archived using the Chem Biography Platform. Table 3 provides the results of the in vitro enzyme inhibition assay experiments and the in vitro cell-based assay experiments performed with the compounds disclosed herein: […]
(Formazan colour is commonly taken as a measure of viable cells.)

For experiment [2], the target named is BRD4(BD1) (Homo sapiens (Human), UniProt O60885). The experiment can be described thus: In vitro enzyme inhibition assay (BRD4 AlphaScreen, H4-tetraacetyl peptide). Format: binding. The settings on record: BRD4(BD1) 2 nM, peptide 15 nM. On the procedure:
Determination of the IC50 for the heterocyclic derivative BRD4 inhibitors disclosed herein was performed as follows. His-tagged […] was cloned, expressed and purified to homogeneity. Filipakopoulos et al., 468 Nature 1067 (2010). BRD4 binding and inhibition was assessed by monitoring the interaction of biotinylated H4-tetraacetyl peptide (AnaSpec, H4K5/8/12/16(Ac), biotin—labeled) with the target using the AlphaScreen technology (Life Technologies). In a 384-well ProxiPlate BRD4(BD1) (2 nM final) was combined with peptide (15 nM final) in 50 mM HEPES (pH 7.3), 10 mM NaCl, 0.25 mM TCEP, 0.1% (w/v) BSA, and 0.005% (w/v) Brij-35 either in the presence of DMSO (final 0.4% DMSO) or compound dilution series in DMSO. After 20 min incubation at RT, Alpha streptavidin donor beads and Nickel Chelate acceptor beads were added to a final concentration of 5 μg/mL. After 2 hr of equilibration, plates were read on an Envision instrument and the IC50 was calculated using a four parameter non-linear curve fit.
The ability of the compounds disclosed herein to inhibit BRD4 activity was quantified and the respective IC50 value was determined.
On the technique in general: Bead proximity is the source of the signal in Alpha formats.

For experiment [3], the system named is HL-60, human proleukemia cells. The experiment can be described thus: Cell-MTS cellular proliferation assay, HL-60. Format: cell-based. The settings on record: HL-60 cells, 168 hr incubation. On the procedure:
as §1, §2, §3

For experiment [4], the system named is Raji, human Burkitts lymphoma cells. The experiment can be described thus: Cell-MTS cellular proliferation assay, Raji. It is filed as cell-based. The note with it: 168 hr incubation. Here is the method: as §1, §2, §3

For orientation: IC50 means the concentration needed to halve the response being measured. Lower therefore signals greater potency. For `CCOc1nc2c(CS(C)(=O)=O)cc(-c3cc(OC)c(=O)n(C)c3)cc2n1CC1CC1` [Example 98, 5-[3-(cyclopropylmethyl)-2-ethoxy-7-(methylsulfonylmethyl)benzimidazol-5-yl]-3-methoxy-1-methylpyridin-2-one], the half-maximal inhibitory concentration (IC50) was above 5000 nM in experiment [1] (Homo sapiens), at most 500 nM in experiment [2], at most 500 nM in experiment [3] (Homo sapiens) and at most 500 nM in experiment [4] (Homo sapiens).
Consider `CN1Cc2cc(OCC(F)(F)F)c(-c3cn(C)c(=O)c4ccccc34)cc2S1(=O)=O` [Example 10, 2-methyl-4-[2-methyl-1,1-dioxo-5-(2,2,2-trifluoroethoxy)-3H-1,2-benzothiazol-6-yl]isoquinolin-1-one], for which the IC50 in experiment [1] (Homo sapiens) was 500 to 5000 nM; in experiment [2], at most 500 nM; in experiment [3] (Homo sapiens), at most 500 nM; in experiment [4] (Homo sapiens) it was 500 to 5000 nM.
On to `Cc1cc(-c2cc(CS(C)(=O)=O)cc3nc(C4CC4)oc23)cn(C)c1=O` [Example 56, 5-[2-cyclopropyl-5-(methylsulfonylmethyl)-1,3-benzoxazol-7-yl]-1,3-dimethylpyridin-2-one], for which the IC50 is above 5000 nM in experiment [1] (Homo sapiens), at most 500 nM in experiment [2], at most 500 nM in experiment [3] (Homo sapiens) and 500 to 5000 nM in experiment [4] (Homo sapiens).
In the case of `CCCCn1c(C)nc2c(NS(C)(=O)=O)cc(-c3cc(C)c(=O)n(C)c3)cc21` [Example 94, N-[1-butyl-6-(1,5-dimethyl-6-oxopyridin-3-yl)-2-methylbenzimidazol-4-yl]methanesulfonamide hydrochloride], the IC50 in experiment [1] (Homo sapiens) is above 5000 nM; in experiment [2], at most 500 nM; in experiment [3] (Homo sapiens), at most 500 nM; in experiment [4] (Homo sapiens), at most 500 nM.
As to `Cn1cc(-c2cc3c(S(C)(=O)=O)cccc3n2CC2CC2)c2ccccc2c1=O` [Example 78, 4-[1-(cyclopropylmethyl)-4-methylsulfonylindol-2-yl]-2-methylisoquinolin-1-one], in experiment [2], the IC50 was at most 500 nM.
As to `CCS(=O)(=O)c1cc(-c2cc(OC)c(=O)n(C)c2)cc2c1nc(C)n2CC1CC1` [Example 70, 5-[3-(cyclopropylmethyl)-7-ethylsulfonyl-2-methylbenzimidazol-5-yl]-3-methoxy-1-methylpyridin-2-one], the IC50 in experiment [2] is at most 500 nM.
On the same count and under the same terms, the result for `CCS(=O)(=O)Nc1cc(-c2cn(C)c(=O)c3ccccc23)c2nc(C3CC3)n(C)c2c1` [Example 55, N-[2-cyclopropyl-3-methyl-7-(2-methyl-1-oxoisoquinolin-4-yl)benzimidazol-5-yl]ethanesulfonamide] reads at most 500 nM; that for `Cc1cc(-c2nc(NS(C)(=O)=O)c3nc(C)n(Cc4ccc(F)cc4)c3n2)cn(C)c1=O` [Example 22, N-[2-(1,5-dimethyl-6-oxopyridin-3-yl)-9-[(4-fluorophenyl)methyl]-8-methylpurin-6-yl]methanesulfonamide], at most 500 nM; that for `COc1cc(-c2cc(CS(C)(=O)=O)cc3nc(C4CC4)oc23)cn(C)c1=O` [Example 63, 5-[2-cyclopropyl-5-(methylsulfonylmethyl)-1,3-benzoxazol-7-yl]-3-methoxy-1-methylpyridin-2-one], at most 500 nM.
In experiment [2], `CCn1c(-c2cc(C)c(=O)n(C)c2)cc2c(S(C)(=O)=O)cccc21` [Example 75, 5-(1-ethyl-4-methylsulfonylindol-2-yl)-1,3-dimethylpyridin-2-one] yielded an IC50 of at most 500 nM.
`CCS(=O)(=O)Nc1cc(-c2cc(C)c(=O)n(C)c2)cc2c1c(F)nn2Cc1ccc(F)cc1` [Example 105, N-[6-(1,5-dimethyl-6-oxopyridin-3-yl)-3-fluoro-1-[(4-fluorophenyl)methyl]indazol-4-yl]ethanesulfonamide]: the IC50 in experiment [2] is at most 500 nM.
With `Cc1cc(-c2cc(S(C)(=O)=O)ccc2OCC2CC2)c2n(c1=O)CCC2(F)F` [Example 89, 8-[2-(cyclopropylmethoxy)-5-methylsulfonylphenyl]-1,1-difluoro-6-methyl-2,3-dihydroindolizin-5-one], the IC50 in experiment [2] fell in the range of 500 to 5000 nM.
In experiment [2], `CCS(=O)(=O)c1cc(-c2cc(C)c(=O)n(C)c2)cc2c1nc(C)n2CC1CC1` [Example 69, 5-[3-(cyclopropylmethyl)-7-ethylsulfonyl-2-methylbenzimidazol-5-yl]-1,3-dimethylpyridin-2-one] registered an IC50 of at most 500 nM.
The same measure, in the same setting: the result for `CCS(=O)(=O)Nc1cc(-c2cc(C)c(=O)n(C)c2)cc2c1c(F)nn2Cc1ccccc1` [Example 106, N-[1-benzyl-6-(1,5-dimethyl-6-oxopyridin-3-yl)-3-fluoroindazol-4-yl]ethanesulfonamide] reads at most 500 nM.
On to `CN1Cc2cc(Oc3ccc(F)cc3F)c(-c3ccc(=O)n(C)c3)cc2S1(=O)=O` [Example 12, 5-[5-(2,4-difluorophenoxy)-2-methyl-1,1-dioxo-3H-1,2-benzothiazol-6-yl]-1-methylpyridin-2-one], for which the concentration for half-maximal inhibition (IC50) in experiment [2] is at most 500 nM.
Regarding `CCc1nc2c(NS(C)(=O)=O)cc(-c3cc(C)c(=O)n(C)c3)cc2n1CC1CC1` [Example 74, N-[1-(cyclopropylmethyl)-6-(1,5-dimethyl-6-oxopyridin-3-yl)-2-ethylbenzimidazol-4-yl]methanesulfonamide], in experiment [2], the IC50 is at most 500 nM.
`Cc1cc(-c2cc3c(S(C)(=O)=O)cccc3n2CCC2CC2)cn(C)c1=O` [Example 77, 5-[1-(2-cyclopropylethyl)-4-methylsulfonylindol-2-yl]-1,3-dimethylpyridin-2-one] showed an IC50 in experiment [2] of at most 500 nM.
In turn, `CCS(=O)(=O)Nc1cc(-c2cc(C)c(=O)n(C)c2)cc2c1nc(OC)n2CC1CC1` [Example 103, N-[1-(cyclopropylmethyl)-6-(1,5-dimethyl-6-oxopyridin-3-yl)-2-methoxybenzimidazol-4-yl]ethanesulfonamide] came in with an IC50 in experiment [2] of at most 500 nM.
Take `CCc1cc2cc(S(C)(=O)=O)cc(-c3cc(C)c(=O)n(C)c3)c2o1` [Example 21, 5-(2-ethyl-5-methylsulfonyl-1-benzofuran-7-yl)-1,3-dimethylpyridin-2-one]: the IC50 in experiment [2] was at most 500 nM.
`CCS(=O)(=O)Nc1cc(-c2cc(C)c(=O)n(C)c2)c2nc(C3CC3)n(C)c2c1` [Example 54, N-[2-cyclopropyl-7-(1,5-dimethyl-6-oxopyridin-3-yl)-3-methylbenzimidazol-5-yl]ethanesulfonamide]: the IC50 in experiment [2] was at most 500 nM.
On to `Cc1cc(-c2nc(NS(C)(=O)=O)c3nc(C)n(CC4CC4)c3n2)cn(C)c1=O` [Example 81, N-[9-(cyclopropylmethyl)-2-(1,5-dimethyl-6-oxopyridin-3-yl)-8-methylpurin-6-yl]methanesulfonamide], for which the IC50 in experiment [2] was at most 500 nM.
On the same count and under the same terms, as for `Cc1cc(-c2cc(S(C)(=O)=O)cc3cc(-c4ccccc4)oc23)cn(C)c1=O` [Example 25, 1,3-dimethyl-5-(5-methylsulfonyl-2-phenyl-1-benzofuran-7-yl)pyridin-2-one], the figure is at most 500 nM; as for `Cc1cc(-c2cc3c(S(C)(=O)=O)cccc3n2CC2CC2)cn(C)c1=O` [Example 76, 5-[1-(cyclopropylmethyl)-4-methylsulfonylindol-2-yl]-1,3-dimethylpyridin-2-one], at most 500 nM.
For the molecule `Cc1cc(-c2cc(NS(C)(=O)=O)c3nc(C)n([C@H](C)c4ccccc4)c3c2)cn(C)c1=O` [Example 45, N-[6-(1,5-dimethyl-6-oxopyridin-3-yl)-2-methyl-1-[(1R)-(1-phenylethyl)]benzimidazol-4-yl]methanesulfonamide], the IC50 in experiment [1] was 500 to 5000 nM; in experiment [3], at most 500 nM; in experiment [4] it was at most 500 nM.
`Cc1cc(-c2cc(NS(C)(=O)=O)c3c(F)nn(Cc4ccccc4)c3c2)cn(C)c1=O` [Example 104, N-[1-benzyl-6-(1,5-dimethyl-6-oxopyridin-3-yl)-3-fluoroindazol-4-yl]methanesulfonamide] came in with a concentration for half-maximal inhibition (IC50) in experiment [2] of at most 500 nM.
The molecule `Cc1cc(-c2cc(S(C)(=O)=O)ccc2OCC2CC2)c2n(c1=O)CCC2F` (racemic) [Example 90, (±)-8-[2-(cyclopropylmethoxy)-5-methylsulfonylphenyl]-1-fluoro-6-methyl-2,3-dihydro-1H-indolizin-5-one] yielded an IC50 in experiment [2] of at most 500 nM.
